Assay results taken from patent publication US20240400584A1, “COMPOUNDS AND METHODS FOR MODULATING SPLICING” (REMIX THERAPEUTICS INC., priority 2021, published 2024).
Like-named read-outs stand apart in the source and are kept apart here.

Legend:
[1] = test system: HTT; test: RT-qPCR splicing assay, HTT AJ/CJ mRNA; format: cell-based, human; details: A673 or K562 cells; for IC50: decrease in canonical junction mRNA; for AC50: increase in alternative junction mRNA
Outline: (§1)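 Splicing switch scored as change in CJ and AJ isoform levels, by RT-qPCR on lysates of A673 or K562 cells dosed 24 h (top concentration 10 uM, DMSO at most 0.25%). ΔΔCt relative to DMSO wells was converted to RQ and then to percentage response.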

[2] = test system: Target C; test: Gene panel canonical junction qPCR assay, Target C CJ mRNA (Table 7); format: cell-based, human; details: read-out: Target C CJ mRNA decrease IC50
Outline: (§2)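 Read-out is the IC50 for loss of canonical-junction mRNA, fitted with a four-parameter logistic curve to percentage response. Response came from RT-qPCR on compound-treated A673 or K562 cell lysates, ΔCt against a housekeeping gene and normalized to DMSO.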

[3] = test system: HTT; test: Gene panel canonical junction qPCR assay, HTT CJ mRNA (Table 7); format: cell-based, human; details: read-out: HTT CJ mRNA decrease IC50
Outline: as §2

[4] = test system: MYB; test: RT-qPCR splicing assay, MYB AJ/CJ mRNA; format: cell-based; details: Homo sapiens, A673 or K562 cells, 24 hours; for IC50: decrease in canonical junction mRNA; for AC50: increase in alternative junction mRNA
Outline: as §1

[5] = test system: SMN2; test: Gene panel canonical junction qPCR assay, SMN2 CJ mRNA (Table 7); format: cell-based; details: Homo sapiens, read-out: SMN2 CJ mRNA decrease IC50
Outline: as §2

[6] = test system: MYB; test: Gene panel canonical junction qPCR assay, MYB CJ mRNA (Table 7); format: cell-based; details: Homo sapiens, read-out: MYB CJ mRNA decrease IC50
Outline: as §2

Row | SMILES | IC50 ([1]; Homo sapiens, 24 h) [nM] | AC50 ([1]; Homo sapiens, 24 h) [nM] | IC50 ([2]; Homo sapiens) [nM] | IC50 ([3]; Homo sapiens) [nM] | IC50 [4] [nM] | AC50 [4] [nM] | IC50 [5] [nM] | IC50 [6] [nM] | IC50 ([1]; 24 hours) [nM] | AC50 ([1]; 24 hours) [nM] | IC50 [2] [nM] | IC50 [3] [nM] | IC50 ([1]; Homo sapiens, 24 hours) [nM] | AC50 ([1]; Homo sapiens, 24 hours) [nM]
1 | COc1cc(-c2ccc3c(c2)COc2nc(N4CCN[C@H](C(C)(C)C)C4)ccc2-3)cnn1 [Compound 317, 5-{3-[(3R)-3-tert-butylpiperazin-1-yl]-6H-isochromeno [3,4-b]pyridin-8-yl}-3-methoxypyridazine] | 100 to 1000 | 100 to 1000 | 100 to 1000 | 100 to 1000 | 100 to 1000 | 100 to 1000 | < 100 | 100 to 1000 |  |  |  |  |  | 
2 | c1cnn(-c2ccc3c(c2)COc2nc(N4CCC5(CCNCC5)C4)ccc2-3)c1 [Compound 182] | > 10000 | > 10000 | > 10000 | > 10000 | > 10000 | > 10000 | > 10000 | > 10000 |  |  |  |  |  | 
3 | COc1cc(-c2ccc3c(c2)COc2nc(N(C)[C@@H]4C[C@H]5COC[C@@H](C4)N5)ccc2-3)cnn1 [Compound 232, (1R,5S,7r)-N-[8-(6-methoxypyridazin-4-yl)-6H-isochromeno[3,4-b]pyridin-3-yl]-N-methyl-3-oxa-9-azabicyclo[3.3.1]nonan-7-amine] | < 100 | < 100 | < 100 | < 100 | 100 to 1000 | < 100 | < 100 | 100 to 1000 |  |  |  |  |  | 
4 | c1cnn(-c2ccc3c(c2)OCc2nc(N[C@@H]4C[C@H]5CC[C@@H](C4)N5)ccc2-3)c1 [Compound 135] |  |  |  |  | 1000 to 10000 | > 10000 | 1000 to 10000 | 1000 to 10000 | 1000 to 10000 | 1000 to 10000 | 1000 to 10000 | 1000 to 10000 |  | 
5 | COc1cc(-c2ccc3c(c2)COc2nc(N4CCC(N5CCC5)C4)ccc2-3)cnn1 (centres unmarked) [Compound 312] | 100 to 1000 | 1000 to 10000 | > 10000 | 100 to 1000 | 1000 to 10000 | 1000 to 10000 | 100 to 1000 | 1000 to 10000 |  |  |  |  |  | 
6 | COc1cc(-c2ccc3c(c2)COc2nc(N4CCNCC4)ccc2-3)cnn1 [Compound 282, 3-methoxy-5-[3-(piperazin-1-yl)-6H-isochromeno[3,4-b]pyridin-8-yl] pyridazine] | 100 to 1000 | 100 to 1000 | 100 to 1000 | 100 to 1000 | 100 to 1000 | 100 to 1000 | 100 to 1000 | 100 to 1000 |  |  |  |  |  | 
7 | COc1cc(-c2cc(F)c3c(c2)COc2nc(N(C)[C@@H]4C[C@H]5CC[C@@H](C4)N5)ccc2-3)cnn1 [Compound 254, (1R,3S,5S)—N-[10-fluoro-8-(6-methoxypyridazin-4-yl)-6H-isochromeno[3,4-b]pyridin-3-yl]-N-methyl-8-azabicyclo[3.2.1]octan-3-amine; bis(trifluoroacetaldehyde)] | < 100 | < 100 | 100 to 1000 | < 100 | 100 to 1000 | 100 to 1000 | < 100 | 100 to 1000 |  |  |  |  |  | 
8 | COc1cc(-c2ccc3c(c2)COc2nc(N4CCN[C@@H](C5CC5)C4)ccc2-3)cnn1 [Compound 296] | 100 to 1000 | 100 to 1000 | 100 to 1000 | 100 to 1000 | 100 to 1000 | 100 to 1000 | < 100 | 100 to 1000 |  |  |  |  |  | 
9 | COc1cc(-c2ccc3c(c2)COc2cc(N4CCC(NC(C)(C)C)C4)ncc2-3)cnn1 (centres unmarked) [Compound 289, N-(tert-butyl)-1-(8-(6-methoxypyridazin-4-yl)-6H-isochromeno [4,3-c]pyridin-3-yl)pyrrolidin-3-amine] | 100 to 1000 | 1000 to 10000 | 1000 to 10000 | 100 to 1000 | 100 to 1000 | 1000 to 10000 | < 100 | 100 to 1000 |  |  |  |  |  | 
10 | CN1CCC2(CC1)CCN2c1ccc2c(n1)OCc1cc(-c3cn[nH]c3)ccc1-2 [Compound 227, 7-methyl-1-[8-(1H-pyrazol-4-yl)-6H-isochromeno[3,4-b]pyridin-3-yl]-1,7-diazaspiro[3.5]nonane] | > 10000 | > 10000 | > 10000 | > 10000 | > 10000 | > 10000 | > 10000 | > 10000 |  |  |  |  |  | 
11 | CC(C)(C)N[C@@H]1CCN(c2ccc3c(n2)OCc2cc(-c4cn[nH]c4)ccc2-3)C1 [Compound 257, (3R)—N-tert-butyl-1-[8-(1H-pyrazol-4-yl)-6H-isochromeno[3,4-b]pyridin-3-yl]pyrrolidin-3-amine] | < 100 | < 100 | < 100 | < 100 | 100 to 1000 | 100 to 1000 | < 100 | 100 to 1000 |  |  |  |  |  | 
12 | COc1cc(-c2ccc3c(c2)COc2nc(N4CC[C@H](NC(C)(C)C)C4)ccc2-3)cnn1 [Compound 269, (3S)—N-tert-butyl-1-[8-(6-methoxypyridazin-4-yl)-6H-isochromeno[3,4-b]pyridin-3-yl]pyrrolidin-3-amine] | < 100 | 100 to 1000 | 100 to 1000 | < 100 | 100 to 1000 | 1000 to 10000 | < 100 | 100 to 1000 |  |  |  |  |  | 
13 | Fc1cc2c(cc1-c1cn[nH]c1)COc1nc(O[C@@H]3C[C@H]4CC[C@@H](C3)N4)ccc1-2 [Compound 260] | < 100 | < 100 | 100 to 1000 | < 100 | 100 to 1000 | < 100 | < 100 | 100 to 1000 |  |  |  |  |  | 
14 | CC1(NC2CCN(c3ccc4c(n3)OCc3cc(-n5nccn5)ccc3-4)C2)CC1 (centres unmarked) [Compound 252, N-(1-methylcyclopropyl)-1-[8-(1,2,3-triazol-2-yl)-6H-isochromeno[3,4-b]pyridin-3-yl]pyrrolidin-3-amine] | 100 to 1000 | 1000 to 10000 | 1000 to 10000 | 100 to 1000 | 1000 to 10000 | 1000 to 10000 | 100 to 1000 | 1000 to 10000 |  |  |  |  |  | 
15 | CCN(c1ccc2c(n1)OCc1cc(-n3cccn3)ccc1-2)[C@@H]1C[C@H]2CC[C@@H](C1)N2 [Compound 191] | 100 to 1000 | 1000 to 10000 | 1000 to 10000 | 100 to 1000 | 1000 to 10000 | > 10000 | 100 to 1000 | 1000 to 10000 |  |  |  |  |  | 
16 | COc1cc(-c2ccc3c(c2)COc2nc(N4CCC(NC(C)C)CC4)ccc2-3)cnn1 [Compound 301, N-isopropyl-1-[8-(6-methoxypyridazin-4-yl)-6H-isochromeno[3,4-b]pyridin-3-yl] piperidin-4-amine] |  |  | 1000 to 10000 | 1000 to 10000 | 1000 to 10000 | 1000 to 10000 | 1000 to 10000 | 1000 to 10000 |  |  |  |  | 1000 to 10000 | 100 to 1000
17 | O=c1cc(-c2ccc3c(c2)COc2nc(OC4CC5CC(F)(F)C(C4)N5)ccc2-3)cc[nH]1 (centres unmarked) [Compound 229] |  |  | > 10000 | > 10000 | > 10000 | > 10000 | > 10000 | > 10000 |  |  |  |  | > 10000 | > 10000
18 | COc1cc(-c2ccc3c(c2)COc2nc(N(C)[C@H]4C[C@@H]5CC(F)(F)[C@H](C4)N5)ccc2-3)cnn1 [Compound 247, (1R,3S,5S)-6,6-difluoro-N-[8-(6-methoxypyridazin-4-yl)-6H-isochromeno[3,4-b]pyridin-3-yl]-N-methyl-8-azabicyclo[3.2.1]octan-3-amine] | < 100 | < 100 | 100 to 1000 | < 100 | 100 to 1000 | > 10000 | < 100 | 100 to 1000 |  |  |  |  |  | 
19 | CCN(C)C1CCN(c2ccc3c(n2)OCc2cc(-c4cnnc(OC)c4)ccc2-3)C1 (centres unmarked) [Compound 310] | 100 to 1000 | 100 to 1000 | 1000 to 10000 | 100 to 1000 | 100 to 1000 | 1000 to 10000 | 100 to 1000 | 100 to 1000 |  |  |  |  |  | 
20 | CNC1CCN(c2ccc3c(n2)OCc2cc(-c4cnnc(OC)c4)ccc2-3)CC1 [Compound 300, 1-[8-(6-methoxypyridazin-4-yl)-6H-isochromeno[3,4-b]pyridin-3-yl]-N-methylpiperidin-4-amine] | 1000 to 10000 | 1000 to 10000 | 1000 to 10000 | 1000 to 10000 | > 10000 | > 10000 | 100 to 1000 | > 10000 |  |  |  |  |  | 
21 | COc1cc(-c2ccc3c(c2)COc2nc(N(C)C4CC(C)(C)NC(C)(C)C4)ccc2-3)cnn1 [Compound 231, N-[8-(6-methoxypyridazin-4-yl)-6H-isochromeno[3,4-b]pyridin-3-yl]-N,2,2,6,6-pentamethylpiperidin-4-amine] | 100 to 1000 | 100 to 1000 | 100 to 1000 | 100 to 1000 | 100 to 1000 | 1000 to 10000 | < 100 | 100 to 1000 |  |  |  |  |  | 
22 | CC1(C)CC(Nc2ccc3c(n2)CCOc2cc(-n4cccn4)ccc2-3)CC(C)(C)N1 [Compound 137] | 1000 to 10000 | 1000 to 10000 | 1000 to 10000 | > 10000 | > 10000 | > 10000 | > 10000 | > 10000 |  |  |  |  |  | 
